Test results from patent publication US20090062359A1 (AlgoRx, priority 2002, published 2009).
Where “and” joins values, the source holds several entries; their conditions need not be identical. Equal entries are not always repeated.

Key:
[1] = test system: animal models of inflammatory and neuropathic pain; conditions: administered locally; formalin test and spinal nerve ligation; cited from earlier work
patients = conditions: Langman et al, Lancet 1994; cited from earlier work
[2] = human, in vivo, 300 ug
Protocol: The pharmacokinetic parameters of Cmax, Tmax, AUC(0−tlast) and t½ were evaluated.

[3] = test system: subjects undergoing transpositional osteotomy (bunionectomy); assay: Bunionectomy efficacy study (Phase II): VAS pain at the operation site and rescue analgesia; assay type: in vivo, human; conditions: for VAS pain score, mean +/− SEM: 1000 μg into the wound, n = 11
Protocol: The primary efficacy endpoint was the proportion of subjects in each treatment group requiring opioid analgesia in the first 24 hours post-operatively. The proportions were compared amongst treatment groups using the Cochran-Haenszel test. Secondary efficacy end points included: i) proportion of subjects in each treatment group requiring opioid analgesia in the first 36 hour period post-operatively (Similarly, the proportions were compared amongst treatment groups using the Cochran-Haenszel test); ii) proportion of subjects in each treatment group requiring opioid analgesia in the 10 day period post-operatively (Similarly, the proportions were compared amongst treatment groups using the Cochran-Haenszel test); iii) time to first usage of opioid analgesia in each treatment group (a survival analysis approach will be used: the product-limit (Kaplan-Meier) method will be applied to time to first usage of opioid analgesia. The median time to first usage of opioid analgesia will be estimated in both treatment groups. Pairwise comparisons will be performed to test for equality of the survival curves between the 2 treatment groups using both the log-rank and the Wilcoxon test); iv) total usage of analgesia in each treatment group (the total usage of analgesia will be compared by an analysis of variance with treatment and center as independent variables. A pairwise comparison will be performed between the treatment groups); and v) VAS assessment of pain at the site of operation in each treatment group (The VAS score at each time point will be compared by an analysis of variance with treatment and center as independent variables. A pairwise comparison will be performed between the treatment groups). […] The efficacy analysis was performed on the data obtained ten days postoperatively. The safety analysis was performed based on the safety data for the entire study, including the 6 week and 12 week follow-up periods. The blind was broken at the time the efficacy analysis was performed. However, the individual treatment assignment was available to the statistical analysis group only. All other personnel involved in the study, including the Investigator, study monitor and proprietary staff, remained blinded until the entire study was completed.
The study was designed to include 40 evaluation subjects. […] Each subject had six (6) study visits: a Screening Day (Day −28 to −1), an Operation Day (Day 0), and four (4) Follow-up visits (scheduled for Days 3, 10 and weeks 6 and 12).
On Operation Day (Day 0) the following was performed: a) Pre-operation: Prior to the initiation of an ankle block, inclusion/exclusion criteria assessment was performed. […] Immediately prior to wound closure, the Investigator slowly dripped the study medication (4 mL) from a syringe into the wound, ensuring even tissue exposure. The wound was then be closed according to normal practices and procedures.
In the 24 hours following administration of study medication, vital signs (supine pulse rate and blood pressure) were recorded at 1, 2, 4 and 24 hours post administration. VAS assessment of pain at the operation site was performed at 1, 4, 8, 12 and 24 hours post administration. In those instances where VAS measurements coincide with blood sampling procedures, the VAS assessment was performed first. […] The quantity of each blood sample was 10 mL. […] Adverse events were spontaneously reported by the subject and recorded. […]

[4] = cited from earlier work
[5] = test system: subjects with osteoarthritis of the knee; assay: Osteoarthritis of the knee safety study (Phase 1): safety, tolerability and VAS pain after intra-articular infiltration; assay type: in vivo, human; conditions: for patients reporting transient burning pain immediately following instillation: after 2% lignocaine
Protocol: The primary objective of the study was to evaluate the safety and tolerability of intra-articular capsaicin, when co-administered with intra-articular local anesthetic, compared to placebo, in subjects with end-stage osteoarthritis of the knee, already scheduled to receive knee replacements.
The study was designed to include 16 evaluation subjects. […] Sixteen subjects completed the study.
Patients were treated randomly and in double-blind fashion in four treatment groups, with each group having a progressively longer interval between the intra-articular administration of study medication and subsequent total knee replacement (2, 4, 7, and 14 days). […] Gross and microscopic pathology analysis was completed for each treatment group before the next treatment group was treated.
Each subject had 3 study visits: a Screening Day (Day −7 to −1), the Treatment Day (Day 0), and a Post-Treatment Day (scheduled for Day +2, +4, +7, or +14). On the Treatment Day the subject was randomized, pre-treatment evaluation was performed. The patients were brought into the procedure room, and a VAS pain score was taken (0 mm—no pain, 100 mm—extreme pain). Once the patient had marked his or her pain on the card, he/she was prepped for knee cannulation. Once the cannula was placed, the patient received by intra-articular infiltration, 3 mg/kg (maximum dose of 200 mg) of 2% lignocaine into the knee scheduled to be replaced.
VAS pain scores as well as verbal reports were taken immediately following administration, as well as prior to knee replacement surgery. No subjects discontinued from the study due to adverse events.
On the Post-Treatment Day, study evaluation was performed followed by the scheduled knee replacement, with intra-operative bone and soft tissue biopsies performed for subsequent examination. […] This therefore left the 3 placebo and 9 active patients from the 4 day, 7 day, and 14 day cohorts.

rats = conditions: systemic, cited from earlier work

## CN(C)CCC=C1c2ccccc2CCc2ccccc21 [amitriptyline]
[1]
  local antinociceptive action: produced local antinociceptive actions

## CNCCCN1c2ccccc2CCc2ccccc21 [desipramine]
[1]
  local antinociceptive action: produced local antinociceptive actions

## CN1C(C(=O)Nc2ccccn2)=C(O)c2ccccc2S1(=O)=O [piroxicam]
patients
  patients experiencing gross bleeding and ulceration: up to 4%

## COc1cc(CNC(=O)CCCC/C=C/C(C)C)ccc1O [purified capsaicin, N-(4-hydroxy-3-methoxybenzyl)-8-methylnon-trans-6-enamide]
[2]
  AUC(0−tlast): 0.49883 ng·h/mL
[3]; 1000 μg prior to wound closure, within 72 hours, n=11
  study subjects requiring rescue (opioid rescue): 45%
[3]; 8 hr
  VAS pain score, mean +/− SEM: 5.5 +/− 2.3
[3]; 12 hr
  VAS pain score, mean +/− SEM: 8.2 +/− 3.8
[3]; 24 hr
  VAS pain score, mean +/− SEM: 1.9 +/− 1.0
[3]; 48 hr
  VAS pain score, mean +/− SEM: 5.9 +/− 2.5
[4]; alcohol, ether, benzene and chloroform
  solubility in organic solvents: freely soluble
[4]; water
  solubility in water: practically insoluble
[5]; 10 μg capsaicin intra-articular
  patients reporting transient burning pain immediately following instillation: 0 of 4
[5]; 100 μg capsaicin intra-articular
  patients reporting transient burning pain immediately following instillation: 1 of 4
[5]; 100 μg dose group, single subject
  duration of post-administration (hyper)algesic pain: 9 min
[5]; 300 μg capsaicin intra-articular
  patients reporting transient burning pain immediately following instillation: 4 of 4
[5]; 300 μg dose group, individual subjects
  duration of post-administration (hyper)algesic pain: 17 minutes and 25 minutes (2×) and 42 minutes
[5]; 10, 100 and 300 μg intra-articular
  tolerability: well tolerated at all dose levels
[5]; all dose levels
  treatment related systemic side effects: No treatment related systemic side effects were seen
[5]; all dose levels, knee tissue at replacement
  gross and microscopic pathology: normal
[5]; all episodes, 100 μg and 300 μg dose groups
  onset of post-administration (hyper)algesia after administration: ≤ 5 min
[5]; any dose group at any time point
  effect on proprioception at the injected knee: no discernable effect
[5]; burning sensation, 100 μg and 300 μg dose groups
  average duration of post injection hyperalgesia: less than thirty minutes
[5]; capsaicin group (9 active patients, 10-300 μg), 4 day, 7 day and 14 day cohorts
  reduction of VAS pain score, before administration versus day of surgery: 62±14%
[5]; dose levels 10 μg, 100 μg and 300 μg
  treatment related indication of efficacy (VAS): No clear treatment related indication of efficacy
rats; final doses of 25 mg/kg or less prior to ultra violet radiation
  effect on radiation induced hyperalgesia: prevented radiation induced hyperalgesia
rats; final doses of 50 mg/kg or greater
  effect on pain threshold: pain threshold elevated
